Assays:
Format in all cases: in vivo
[1] = tested on: giant foxtail (Setaria faberi); experiment: Test G Post-Emergence Protocol; conditions: Setaria faberi, post-emergence, 312 h, read-out: Foxtail, Giant damage rating; for pest or weed control at 15.625 g/ha: 15.625 g ai/ha, evaluated after 13 days (100=total damage to plant; 0=no damage to plant); for pest or weed control at 62.5 g/ha: 62.5 g ai/ha; for pest or weed control at 62.5 g/ha / pest or weed control at 250 g/ha: evaluated after 13 days, 100=total damage to plant, 0=no damage to plant; for pest or weed control at 250 g/ha: 250 g ai/ha
In short: (§1)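 Pot-grown seedlings, 8 days old, raised in a glasshouse at 24/16 °C day/night with 14 h light and 65% humidity, were sprayed post-emergence with test compound in acetone/water (50:50) plus 0.5% Tween 20 at 15.625, 62.5 or 250 g/ha. Damage was scored visually 13 days later on a 0–100 scale (100 = total damage).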

[2] = tested on: redroot pigweed (Amaranthus retroflexus); experiment: Test G Post-Emergence Protocol; conditions: Amaranthus retroflexus, post-emergence, 312 h, read-out: Pigweed, Redroot damage rating; for pest or weed control at 15.625 g/ha: 15.625 g ai/ha, evaluated after 13 days (100=total damage to plant; 0=no damage to plant); for pest or weed control at 62.5 g/ha: 62.5 g ai/ha; for pest or weed control at 62.5 g/ha / pest or weed control at 250 g/ha: evaluated after 13 days, 100=total damage to plant, 0=no damage to plant; for pest or weed control at 250 g/ha: 250 g ai/ha
In short: as §1

[3] = tested on: velvetleaf (Abutilon theophrasti); experiment: Test G Post-Emergence Protocol; conditions: Abutilon theophrasti, post-emergence, 312 h, read-out: Velvetleaf damage rating; for pest or weed control at 15.625 g/ha: 15.625 g ai/ha, evaluated after 13 days (100=total damage to plant; 0=no damage to plant); for pest or weed control at 62.5 g/ha: 62.5 g ai/ha; for pest or weed control at 62.5 g/ha / pest or weed control at 250 g/ha: evaluated after 13 days, 100=total damage to plant, 0=no damage to plant; for pest or weed control at 250 g/ha: 250 g ai/ha
In short: as §1

[4] = tested on: barnyardgrass (Echinochloa crus-galli); experiment: Test G Post-Emergence Protocol; conditions: Echinochloa crus-galli, post-emergence, 312 h, read-out: Barnyardgrass damage rating; for pest or weed control at 15.625 g/ha: 15.625 g ai/ha, evaluated after 13 days (100=total damage to plant; 0=no damage to plant); for pest or weed control at 62.5 g/ha: 62.5 g ai/ha; for pest or weed control at 62.5 g/ha / pest or weed control at 250 g/ha: evaluated after 13 days, 100=total damage to plant, 0=no damage to plant; for pest or weed control at 250 g/ha: 250 g ai/ha
In short: as §1

[5] = tested on: corn (Zea mays); experiment: Test G Post-Emergence Protocol; conditions: Zea mays, post-emergence, 312 h, read-out: Corn damage rating; for plant injury at 15.625 g/ha: 15.625 g ai/ha, evaluated after 13 days (100=total damage to plant; 0=no damage to plant); for plant injury at 62.5 g/ha: 62.5 g ai/ha; for plant injury at 62.5 g/ha / plant injury at 250 g/ha: evaluated after 13 days, 100=total damage to plant, 0=no damage to plant; for plant injury at 250 g/ha: 250 g ai/ha
In short: as §1

[6] = tested on: ivy-leaved morning glory (Ipomoea hederacea); experiment: Test G Post-Emergence Protocol; conditions: Ipomoea, post-emergence, 312 h, read-out: Morningglory, Ivy-leaved damage rating; for pest or weed control at 15.625 g/ha: 15.625 g ai/ha, evaluated after 13 days (100=total damage to plant; 0=no damage to plant); for pest or weed control at 62.5 g/ha: 62.5 g ai/ha; for pest or weed control at 62.5 g/ha / pest or weed control at 250 g/ha: evaluated after 13 days, 100=total damage to plant, 0=no damage to plant; for pest or weed control at 250 g/ha: 250 g ai/ha
In short: as §1

[7] = tested on: giant foxtail (Setaria faberi); experiment: Test G Pre-Emergence Protocol; conditions: Setaria faberi, pre-emergence, 312 h, evaluated after 13 days; for pest or weed control at 15.625 g/ha: 15.625 g ai/ha; for pest or weed control at 15.625 g/ha / pest or weed control at 250 g/ha: read-out: Foxtail, Giant damage rating (100=total damage to plant; 0=no damage to plant); for pest or weed control at 62.5 g/ha: 62.5 g ai/ha, 100=total damage to plant, 0=no damage to plant, read-out: Foxtail, Giant damage rating; for pest or weed control at 250 g/ha: 250 g ai/ha
In short: (§2)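 Pots of seeds in standard soil were grown for one day in a glasshouse (24/16 °C day/night, 14 h light, 65% humidity), then sprayed with compound in acetone/water 50:50 with 0.5% Tween 20 at 15.625, 62.5 or 250 g/ha. Damage was scored after 13 days on a 0 (none) to 100 (total) scale.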

[8] = tested on: redroot pigweed (Amaranthus retroflexus); experiment: Test G Pre-Emergence Protocol; conditions: Amaranthus retroflexus, pre-emergence, 312 h, evaluated after 13 days; for pest or weed control at 15.625 g/ha: 15.625 g ai/ha; for pest or weed control at 15.625 g/ha / pest or weed control at 250 g/ha: read-out: Pigweed, Redroot damage rating (100=total damage to plant; 0=no damage to plant); for pest or weed control at 62.5 g/ha: 62.5 g ai/ha, 100=total damage to plant, 0=no damage to plant, read-out: Pigweed, Redroot damage rating; for pest or weed control at 250 g/ha: 250 g ai/ha
In short: as §2

[9] = tested on: velvetleaf (Abutilon theophrasti); experiment: Test G Pre-Emergence Protocol; conditions: Abutilon theophrasti, pre-emergence, 312 h, evaluated after 13 days; for pest or weed control at 15.625 g/ha: 15.625 g ai/ha; for pest or weed control at 15.625 g/ha / pest or weed control at 250 g/ha: read-out: Velvetleaf damage rating (100=total damage to plant; 0=no damage to plant); for pest or weed control at 62.5 g/ha: 62.5 g ai/ha, 100=total damage to plant, 0=no damage to plant, read-out: Velvetleaf damage rating; for pest or weed control at 250 g/ha: 250 g ai/ha
In short: as §2

[10] = tested on: barnyardgrass (Echinochloa crus-galli); experiment: Test G Pre-Emergence Protocol; conditions: Echinochloa crus-galli, pre-emergence, 312 h, evaluated after 13 days; for pest or weed control at 15.625 g/ha: 15.625 g ai/ha; for pest or weed control at 15.625 g/ha / pest or weed control at 250 g/ha: read-out: Barnyardgrass damage rating (100=total damage to plant; 0=no damage to plant); for pest or weed control at 62.5 g/ha: 62.5 g ai/ha, 100=total damage to plant, 0=no damage to plant, read-out: Barnyardgrass damage rating; for pest or weed control at 250 g/ha: 250 g ai/ha
In short: as §2

[11] = tested on: corn (Zea mays); experiment: Test G Pre-Emergence Protocol; conditions: Zea mays, pre-emergence, 312 h, evaluated after 13 days; for plant injury at 15.625 g/ha: 15.625 g ai/ha; for plant injury at 15.625 g/ha / plant injury at 250 g/ha: read-out: Corn damage rating (100=total damage to plant; 0=no damage to plant); for plant injury at 62.5 g/ha: 62.5 g ai/ha, 100=total damage to plant, 0=no damage to plant, read-out: Corn damage rating; for plant injury at 250 g/ha: 250 g ai/ha
In short: as §2

[12] = tested on: ivy-leaved morning glory (Ipomoea hederacea); experiment: Test G Pre-Emergence Protocol; conditions: Ipomoea, pre-emergence, 312 h, evaluated after 13 days; for pest or weed control at 15.625 g/ha: 15.625 g ai/ha; for pest or weed control at 15.625 g/ha / pest or weed control at 250 g/ha: read-out: Morningglory, Ivy-leaved damage rating (100=total damage to plant; 0=no damage to plant); for pest or weed control at 62.5 g/ha: 62.5 g ai/ha, 100=total damage to plant, 0=no damage to plant, read-out: Morningglory, Ivy-leaved damage rating; for pest or weed control at 250 g/ha: 250 g ai/ha
In short: as §2

Structure (SMILES)	pest or weed control at 15.625 g/ha [1] [%]	pest or weed control at 62.5 g/ha [1] [%]	pest or weed control at 250 g/ha [1] [%]	pest or weed control at 15.625 g/ha [2] [%]	pest or weed control at 62.5 g/ha [2] [%]	pest or weed control at 250 g/ha [2] [%]	pest or weed control at 15.625 g/ha [3] [%]	pest or weed control at 62.5 g/ha [3] [%]	pest or weed control at 250 g/ha [3] [%]	pest or weed control at 15.625 g/ha [4] [%]	pest or weed control at 62.5 g/ha [4] [%]	pest or weed control at 250 g/ha [4] [%]	plant injury at 15.625 g/ha [5] [%]	plant injury at 62.5 g/ha [5] [%]	plant injury at 250 g/ha [5] [%]	pest or weed control at 15.625 g/ha [6] [%]	pest or weed control at 62.5 g/ha [6] [%]	pest or weed control at 250 g/ha [6] [%]	pest or weed control at 15.625 g/ha [7] [%]	pest or weed control at 62.5 g/ha [7] [%]	also measured
CN1C[C@H](c2cccc(C(F)(F)F)c2)[C@@H](C(=O)Nc2cccc3c2S(=O)(=O)CC3)C1=O (racemic) [Compound 1738]	20	40	70	20	10	10	0	10	10	0	40	80	0	0	0	0	0	0	0	0	pest or weed control at 250 g/ha [7]: 70%; pest or weed control at 15.625 g/ha [8]: 0%; pest or weed control at 62.5 g/ha [8]: 0%; pest or weed control at 250 g/ha [8]: 0%; pest or weed control at 15.625 g/ha [9]: 0%; pest or weed control at 62.5 g/ha [9]: 0%; pest or weed control at 250 g/ha [9]: 0%; pest or weed control at 15.625 g/ha [10]: 0%; pest or weed control at 62.5 g/ha [10]: 0%; pest or weed control at 250 g/ha [10]: 70%; plant injury at 15.625 g/ha [11]: 0%; plant injury at 62.5 g/ha [11]: 0%; plant injury at 250 g/ha [11]: 0%; pest or weed control at 15.625 g/ha [12]: 0%; pest or weed control at 62.5 g/ha [12]: 0%; pest or weed control at 250 g/ha [12]: 0%
Cc1ccc([C@H]2CN(C)C(=O)[C@@H]2C(=O)Nc2cccc3c2S(=O)(=O)CC3)cc1 (racemic) [Compound 1739]	0	0	0	0	0	0	0	0	0	0	0	0	0	0	0	0	0	0	0	0	pest or weed control at 250 g/ha [7]: 0%; pest or weed control at 15.625 g/ha [8]: 0%; pest or weed control at 62.5 g/ha [8]: 0%; pest or weed control at 250 g/ha [8]: 0%; pest or weed control at 15.625 g/ha [9]: 0%; pest or weed control at 62.5 g/ha [9]: 0%; pest or weed control at 250 g/ha [9]: 0%; pest or weed control at 15.625 g/ha [10]: 0%; pest or weed control at 62.5 g/ha [10]: 0%; pest or weed control at 250 g/ha [10]: 0%; plant injury at 15.625 g/ha [11]: 0%; plant injury at 62.5 g/ha [11]: 0%; plant injury at 250 g/ha [11]: 0%; pest or weed control at 15.625 g/ha [12]: 0%; pest or weed control at 62.5 g/ha [12]: 0%; pest or weed control at 250 g/ha [12]: 0%

From patent US12077503B2, “Substituted cyclic amides and their use as herbicides” (FMC CORPORATION, priority 2015, dated 2024)
